Results taken from patent US4751302A, “Indazole derivatives” (priority 1982, dated 1988).
Values joined by “and” are separate entries in the source; they are usually repeats but may differ in a detail not shown here. Identical values can stand only once. “Also recorded” adds a separate entry of the source. Like-named read-outs stand apart in the source and are kept apart here.

Legend:
gastric ulcer = type: in vivo, Male donryu rats
Method: The test compound was suspended in 1% HCO-60 (trade name for polyoxyethylene hydrogenated castor oil; a product of Nikko Chemical Co., Ltd., Japan) at the concentration of 10 mg/ml. Male donryu rats weighing 150-160 g were orally administered 100 mg/kg of the test compound. The occurrence of gastric ulcer was examined 24 hours after the administration.
It is well known that the single use of acidic non-steroidal anti-inflammatory drugs causes a side effect in digestive tract ulcers such as gastric ulcer. The inventors found, however, that the side effect could be suppressed if the acidic non-steroidal anti-inflammatory drugs were used in combination with the indazole derivatives or pharmaceutically acceptable salts thereof of this invention. For example, gastric ulcer was caused by a single administration of 10 mg/kg of indomethacin in an ulcer index of 10.2 mm, and in an occurrence frequency of 6/6 (Ulcer generation animal number/Total animal number).

[1] = test system: Bradykinin inducing edema; assay: Anti-edema test, bradykinin inducing edema (Table 2); type: in vivo, rat; details: after 30 minutes
Method: (§1) […] A. Winter et al., NonSteroidal Anti-inflammatory Drugs. As an edema inducing substance, bradykinin, histamine and serotonin were employed. […] Bradykinin inducing edema inhibition and histamine inducing edema inhibition were measured after 30 minutes of the administration, and serotonin inducing edema inhibition was measured after 3 hours of the administration.

Histamine inducing edema = assay: Anti-edema test, histamine inducing edema (Table 2); type: in vivo, rat; details: after 30 minutes
Method: as §1

Serotonin inducing edema = assay: Anti-edema test, serotonin inducing edema (Table 2); type: in vivo, rat; details: after 3 hours
Method: as §1

acetic acid-writing = assay: Analgesic activity, acetic acid-writing test (Table 3); type: in vivo, animal (rat); standard mouse acetic acid-writing test
[2] = Superoxide capture by ESR and UV spectra (potassium superoxide / dicyclohexyl-18-crown-6 in acetonitrile); type: biochemical; details: for catch of superoxide / one electron acceptance: ESR and UV
Method: As described in Yoshihiko Oyagi, "Superoxide and Medical Science", pp. 120-144, published by Kyoritsu Shuppan, a superoxide is considered to be one of the factors which cause the inflammation.
According to the description on Transactions of the Faraday Society, 59, 2016-2026 (1963), the UV spectrum of a phenoxy radical is observed at 380-430 nm. When the UV spectrum of a mixture of the 3-amino-5-hydroxyindazole and dicyclohexyl-18-crown-6 is measured in acetonitrile, λmax is observed at 306 nm. If potassium superoxide is added to the mixture, λmax is observed at 403 nm and 426 nm. On the other hand, no absorptions are observed at 350-450 nm when the UV spectra of potassium superoxide and 3-amino-5-hydroxyindazole are measured respectively in the presence of both dicyclohexyl-18-crown-6 and acetonitrile.

[3] = test system: Carrageenin edema in rat's paw; assay: Carrageenin Edema Test in Rat's Paw (anti-inflammatory activity, Table 1); type: in vivo; details: 100 mg/kg oral, hydrochloride, rat
Method: An anti-inflammatory activity was measured by orally administering 100 mg/kg of a hydrochloride of the indazole derivative of this invention as set forth in Table 1 to an animal in accordance with the standard method of Carrageenin Edema Test in Rat's Paw described in C. A. Winter et al., Proc. Soc. Exp. Biol. Med., 111, 544 (1962).

in vivo = details: mouse, ip, intraperitoneal, hydrochloride, male ddy mice
[4] = potassium superoxide, dicyclohexyl-18-crown-6, acetonitrile
[5] = 100 mg/kg Compound (126) together with 10 mg/kg indomethacin

SMILES	inhibition in vivo at 100 mg/kg [3]	LD50 (in vivo)	further results
COc1ccc2c(c1)c(CC(=O)O)c(C)n2C(=O)c1ccc(Cl)cc1 [indomethacin, 1-(p-chlorobenzoyl)-5-methoxy-2-methyl-indole-3-acetic acid, reference compound]			occurrence frequency (Ulcer generation animal number/Total animal number) (gastric ulcer; rat, in vivo, 10 mg/kg): 6/6; ulcer index (gastric ulcer; rat, in vivo, 10 mg/kg): 10.2 mm
CCCCC1C(=O)N(c2ccccc2)N(c2ccccc2)C1=O [Compound C-5, 3,5-dioxo-1,2-diphenyl-4-n-butylpyrazolidine]			Bradykinin inducing edema Inhibition ([1]; 100 mg/kg oral): 2.9%; Histamine inducing edema Inhibition (Histamine inducing edema; 100 mg/kg oral): 0%; Serotonin inducing edema Inhibition (Serotonin inducing edema; 100 mg/kg oral): 2.8%; Inhibition (acetic acid-writing, analgesic activity) (acetic acid-writing; 100 mg/kg oral): 9%
Nc1n[nH]c2ccc(O)cc12 [3-amino-5-hydroxyindazole, 3-Amino-5-hydroxyindazole]			ESR signals on addition to superoxide mixture (phenoxy radical) [2, 4]: six superfine signals are observed; catch of superoxide / one electron acceptance [2, 4]: a phenoxy radical is produced; UV λmax after adding potassium superoxide (phenoxy radical) ([2]; with potassium superoxide and dicyclohexyl-18-crown-6 in acetonitrile): 403 nm and 426 nm
CC(C(=O)O)c1cccc(C(=O)c2ccccc2)c1 (stereo not shown) [Compound C-6, 3-benzoylhydratropic acid]			Bradykinin inducing edema Inhibition ([1]; Dose: 10 mg/kg, oral): 1.6%; Histamine inducing edema Inhibition (Histamine inducing edema; Dose: 10 mg/kg, oral): 2.9%; Serotonin inducing edema Inhibition (Serotonin inducing edema; Dose: 10 mg/kg, oral): 5.2%
COc1ccc2c(c1)c(CC(=O)O)c(C)n2C(=O)c1ccc(Cl)cc1 [Compound C-4, Indomethacin]			Bradykinin inducing edema Inhibition ([1]; Dose: 10 mg/kg, oral): 0.4%; Histamine inducing edema Inhibition (Histamine inducing edema; Dose: 10 mg/kg, oral): 0%; Serotonin inducing edema Inhibition (Serotonin inducing edema; Dose: 10 mg/kg, oral): 21.4%; Inhibition (acetic acid-writing, analgesic activity) (acetic acid-writing; Dose: 20 mg/kg, oral): 50%
CCN(CC)CCCn1nc(NCCCN2CCCCC2)c2cc(O)ccc21 [(126), 1-(3-Diethylaminopropyl)-3-(3-piperidinopropylamino)-5-hydroxyindazole]	28%	310 mg/kg	occurrence frequency of ulcer (gastric ulcer; [5]): the occurrence frequency was not changed; ulcer index (gastric ulcer; [5]): 5.8 mm; occurrence of gastric ulcer (gastric ulcer; rat, in vivo): gastric ulcer did not occur
c1ccc2c(NCCCN3CCOCC3)n[nH]c2c1 [(152), 3-(3-Morpholinopropylamino)indazole]	51%		Bradykinin inducing edema Inhibition ([1]; 100 mg/kg oral): 37%; Histamine inducing edema Inhibition (Histamine inducing edema; 100 mg/kg oral): 20.7%; Serotonin inducing edema Inhibition (Serotonin inducing edema; 100 mg/kg oral): 42.9%; Inhibition (acetic acid-writing, analgesic activity) (acetic acid-writing; 100 mg/kg oral): 57%
Nc1n[nH]c2ccc(O)cc12 [(162), 3-Amino-5-hydroxyindazole]	45%	243 mg/kg	catch of superoxide / one electron acceptance [2, 4]: can catch the superoxide; also recorded: accepts one electron from the superoxide
CC(CCNc1n[nH]c2ccc(Cl)cc12)N(C)C (stereo not shown) [(53), 3-(3-Dimethylaminobutylamino)-5-chloroindazole]	48%	313 mg/kg	
CCN(CC)CCCNc1nn(CCCN(CC)CC)c2cccc(O)c12 [(119), 1-(3-Diethylaminopropyl)-3-(3-diethylaminopropylamino)-4-hydroxyindazole]	29%	271 mg/kg	
CC(CCn1nc(NCCCN2CCCCC2)c2cc(Cl)ccc21)N1CCCCC1 (stereo not shown) [(105), 1-(3-Piperidinobutyl)-3-(3-piperidinopropylamino)-5-chloroindazole]	29%	231 mg/kg	
CCN(CC)CCCNc1nn(CCC(C)N(C)C)c2ccc(Cl)cc12 (stereo not shown) [(108), 1-(3-Dimethylaminobutyl)-3-(3-diethylaminopropylamino)-5-chloroindazole]	30%	118 mg/kg	
CCN(CC)CCCn1nc(NCCCN2CCCCC2)c2cc(Cl)ccc21 [(96), 1-(3-Diethylaminopropyl)-3-(3-piperidinopropylamino)-5-chloroindazole]	29%	243 mg/kg	
CCN(CC)CCCNc1n[nH]c2cccc(O)c12 [(67), 3-(3-Diethylaminopropylamino)-4-hydroxyindazole]	55%	255 mg/kg	
CCN(CC)CCCn1nc(N)c2cccc(Cl)c21 [(4), 1-(3-Diethylaminopropyl)-3-amino-7-chloroindazole]	59%	273 mg/kg	
CC1CCCC(C)N1CCCNc1n[nH]c2ccc(Cl)cc12 (stereo not shown) [(60), 3-[3-(2,6-Dimethylpiperidino)propylamino]-5-chloroindazole]	36%	310 mg/kg	
Oc1ccc2[nH]nc(NCCCCCCN3CCCCC3)c2c1 [(78), 3-(6-Piperidinohexylamino)-5-hydroxyindazole]	25%	225 mg/kg	
CCN(CC)CCCn1nc(N)c2ccc(Cl)cc21 [(3), 1-(3-Diethylaminopropyl)-3-amino-6-chloroindazole]	54%	241 mg/kg	
Nc1nn(CCCN2CCCCC2)c2ccc(O)cc12 [(33), 1-(3-Piperidinopropyl)-3-amino-5-hydroxyindazole]	52%	227 mg/kg	
Nc1nn(CCCN2CCCC2)c2ccc(O)cc12 [(43), 1-(3-Pyrrolidinopropyl)-3-amino-5-hydroxyindazole]	36%	211 mg/kg	
CCCCN(CCCC)CCCn1nc(NCCCN2CCOCC2)c2ccccc21 [(159), 1-(3-Di-n-butylaminopropyl)-3-(3-morpholinopropylamino)indazole]	41%	191 mg/kg	
OC1CCN(CCCNc2nn(CCCN3CCOCC3)c3ccccc23)CC1 [(158), 1-(3-Morpholinopropyl)-3-[3-(4-hydroxypiperidino)propylamino]indazole]	30%	288 mg/kg	
Nc1nn(CCCN2CCC(O)CC2)c2ccc(Cl)cc12 [(17), 1-[3-(4-Hydroxypiperidino)propyl]-3-amino-5-chloroindazole]	37%	251 mg/kg	
CCN(CC)CCCNc1n[nH]c2c(N)cc(N)cc12 [(73), 3-(3-Diethylaminopropylamino)-5,7-diaminoindazole]	55%	355 mg/kg	
Nc1nn(CCCN2CCOCC2)c2ccccc12 [(149), 1-(3-Morpholinopropyl)-3-aminoindazole]	50%	261 mg/kg	
Nc1cc(N)c2[nH]nc(N)c2c1 [(167), 3,5,7-Triaminoindazole]	85%	171 mg/kg	
CCN(CC)CCCNc1nn(CCC(C)N(C)C)c2ccc(O)cc12 (stereo not shown) [(138), 1-(3-Dimethylaminobutyl)-3-(3-diethylaminopropylamino)-5-hydroxyindazole]	29%	213 mg/kg	
Oc1ccc2c(c1)c(NCCCN1CCCCCC1)nn2CCCN1CCCC1 [(142), 1-(3-Pyrrolidinopropyl)-3-(3-homopiperidinopropylamino)-5-hydroxyindazole]	28%	349 mg/kg	
CC(CCNc1nn(CCC(C)N2CCCCC2)c2ccc(Cl)cc12)N(C)C (stereo not shown) [(107), 1-(3-Piperidinobutyl)-3-(3-dimethylaminobutylamino)-5-chloroindazole]	22%	231 mg/kg	
CN1CCN(CCCNc2nn(CCCN3CCCC3)c3ccc(Cl)cc23)CC1 [(114), 1-(3-Pyrrolidinopropyl)-3-[3-(4-methylpiperazino)propylamino]-5-chloroindazole]	30%	299 mg/kg	
